Source: PMC9259545, “Impact of poly-arginine peptides R18D and R18 on alteplase and tenecteplase thrombolysis in vitro, and neuroprotective stability to proteolysis” (Journal of Thrombosis and Thrombolysis, 2022)
No end group written: not given here.

What was measured:
[1] = test system: Rat primary cortical cultures; parameters: method as in PMID 25669902; settings: cited from earlier work
Experimental: To assess peptide proteolytic stability, R18 and R18D neuroprotective efficacy after incubation with tPA, TNK or trypsin was examined in the glutamic acid excitotoxicity model. Peptides were added to culture wells (96-well plate format) 5 min prior to glutamic acid exposure by removing media and adding 50 µL of media containing R18 or R18D at a 2 µM concentration. To induce excitotoxicity, 50 µL of Minimal Essential Media (Life Technologies)/2% B27 (MEM/B27) containing glutamic acid (200 µM: final concentration 100 µM; L-glutamic acid. L-glutamic acid was prepared as a 10,000 µM stock in water ...

[2] = test system: patients undergoing thrombectomy; settings: ESCAPE-NA-1 trial, subgroup analysis; cited from earlier work
Excerpt: The cationic arginine-rich peptides (CARPs) poly-arginine-18 (R18; 18-mer of L-enantiomer arginine; net charge + 18), its D-enantiomer (R18D) and NA-1 (also known as nerinetide or TAT-NR2B9c; net charge + 7) represent emerging neuroprotective therapies for the acute treatment of ischaemic stroke, especially prior to thrombolysis and endovascular thrombectomy.

tPA or TNK [3] = settings: cited from earlier work
Excerpt: Given the potential future application of the R18D, R18 and NA-1 peptides as ischaemic stroke neurotherapeutics, it is important to establish if they interfere with current and future standard of care treatments, namely alteplase (tPA; recombinant tissue plasminogen activator) and tenecteplase (TNK; a modified version of tPA) thrombolysis, which are routinely administered prior to thrombectomy. Similarly, it is also important to determine whether tPA or TNK may cause proteolytic degradation of the peptides directly or through the activation of plasminogen to plasmin, thereby reducing their pot ...

tPA or TNK [4] = format: biochemical, human
Experimental: (§1) We utilised a high throughput 96-well plate thrombolysis assay (“halo clot assay”) based on the procedure developed by Bonnard et al.. To reduce assay components the halo thrombus formation procedure was modified by replacing the original thrombotic mixture consisting of recombinant tissue factor and synthetic phospholipids reconstituted in 30 mM calcium, with thrombin, and reducing the pro-thrombotic volume (i.e., thrombin) from 5 to 3 µL and blood volume from 25 to 12 µL. Another modification to simplify clot formation consisted of adding the thrombin (3 µL; 500 nM in saline) to one side of the well and 12 µL of blood to the opposite side of well, before using a heat stretched Pasteur pipette with sealed end to mix the two liquids together using 4 to 5 circular motions around the edge of the well (halo clot). The original methodology involved adding the 5 μL of the clotting mixture to the edge of the well, and then using a micropipette to slowly release the 25 μL of blood to the edge of the well while at the same time maintaining a circular motion. Plates were incubated in a humidified 37 °C incubator for 1 h before use in the thrombolysis assay.
(§2) The thrombolysis assay involved adding 30 µL of Tris buffer (50 mM Tris–HCl, 100 mM NaCl, pH 7.4) with or without peptide followed by 55 µL Tris buffer containing tPA or TNK (5 nM final concentration) and 50% human plasma (final plasma concentration during thrombolysis 27.5%). The final concentration of peptide during thrombolysis ranged from 0.25 to 16 µM (note: an intravenous dose of R18D at 350 nmol/kg, which is likely to be neuroprotective achieves a Cmax of 0.7–0.9 µM in healthy male and female rats; unpublished observation). […] Following the addition of tPA or TNK into the wells, clot lysis was monitored over a 1-h period at 37 °C using a plate reader (Cytation5, BioTek, USA) by measuring absorbance at 510 nm every 1 min immediately after orbital shaking (205 rpm for 5 s). Controls consisted of wells with no thrombin (100% clot lysis; L100%) and wells with no tPA or TNK (0% clot lysis; L0%). At the 1-h time point, the percentage of thrombolysis (%T) in tPA or TNK treated samples (LTX) was calculated by transforming absorbance values based on the formula: % T = (LTX) − (L0%)/(L100%) − (L0%) × 100. In addition, during the 1-h period of clot lysis lag time and maximal activity (also known as maximum velocity or Vmax) of the thrombolysis reaction were calculated. The lag time is defined as the time interval between the first absorbance reading (time = 0) and the line of maximum slope of the thrombolysis reaction. The maximal activity is calculated from the maximum slope over the time course of the assay and reflects the capacity of an enzyme to catalyse a reaction (i.e., thrombolysis), with higher values representing higher catalytic activity (i.e., tPA/TNK induced plasmin thrombolysis).
For each thrombolysis assay, replicates for control wells (L0% and L100%) and tPA or TNK only treated wells consisted of n = 4–8. Replicates for tPA or TNK and peptide treated wells consisted of n = 4. For data analysis and graphical representations of the results, data from three independent thrombolytic assays were pooled. Studies consisted of R18D, R18 and NA-1 examined at the 0.5, 1, 2, 4, 8 or 16 µM concentrations performed concurrently on the same 96-well plate, in respective order. […]

TNK = molecular target: T1, TNK (Homo sapiens, UniProt P00750, H332A/K331A/N152Q/R333A/R334A/T138N); experiment: Halo clot thrombolysis assay, TNK thrombolysis of whole blood clots; format: biochemical; settings: concurrent study, 0.5-16 µM peptide, TNK 5 nM, 27.5% human plasma
T1 construct: purchased Boehringer Ingelheim 50 mg vial
Experimental: as §1, §2
(§3) For each thrombolysis assay, replicates for control wells (L0% and L100%) and tPA or TNK only treated wells consisted of n = 4–8. Replicates for tPA or TNK and peptide treated wells consisted of n = 4. For data analysis and graphical representations of the results, data from three independent thrombolytic assays were pooled. Studies consisted of R18D, R18 and NA-1 examined at the 0.5, 1, 2, 4, 8 or 16 µM concentrations performed concurrently on the same 96-well plate, in respective order. In addition, since R18D is known to be resistant to plasmin degradation and appeared to have the most impact on tPA or TNK thrombolysis, a separate set of three independent assays were performed for this peptide alone at concentrations of 0.25, 0.5, 1, 2, 4, 8 or 16 µM. Furthermore, the second dose study with R18D provided the opportunity to include a lower concentration (0.25 µM) of the peptide and to provide comparative data when only one peptide was examined in the thrombolysis assay per 96-well plate as opposed to examining the three peptides concurrently on the same plate. […]

tPA = molecular target: T2, tPA (Homo sapiens, UniProt P00750); experiment: Halo clot thrombolysis assay, tPA thrombolysis of whole blood clots; format: biochemical; settings: tPA 5 nM, 27.5% human plasma; for Increase in tPA lag time / Increase in tPA thrombolysis maximal activity: concurrent study, 37 °C
T2 construct: purchased Boehringer Ingelheim, Germany 10 mg vial
Experimental: as §1, §2, §3

T1 sequence (P00750 36-562 T138N/N152Q/K331A/H332A/R333A/R334A): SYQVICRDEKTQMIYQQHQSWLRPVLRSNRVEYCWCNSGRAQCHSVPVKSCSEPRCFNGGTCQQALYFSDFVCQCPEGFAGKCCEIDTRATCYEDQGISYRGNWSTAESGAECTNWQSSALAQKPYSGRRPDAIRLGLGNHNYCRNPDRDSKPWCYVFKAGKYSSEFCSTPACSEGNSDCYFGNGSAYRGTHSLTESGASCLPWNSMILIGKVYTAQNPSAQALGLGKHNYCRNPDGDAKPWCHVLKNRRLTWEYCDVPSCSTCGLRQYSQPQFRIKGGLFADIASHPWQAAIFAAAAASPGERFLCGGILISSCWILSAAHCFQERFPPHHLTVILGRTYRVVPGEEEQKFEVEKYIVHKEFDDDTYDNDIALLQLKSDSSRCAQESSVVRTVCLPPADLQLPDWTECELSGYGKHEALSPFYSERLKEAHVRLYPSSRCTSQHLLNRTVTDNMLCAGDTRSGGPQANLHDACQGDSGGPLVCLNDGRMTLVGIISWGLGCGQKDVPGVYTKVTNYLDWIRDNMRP
T2 sequence (P00750 36-562): as the sequence (P00750 36-562 T138N/N152Q/K331A/H332A/R333A/R334A) above, with N103T, Q117N, A296K, A297H, A298R, A299R counted along it

## YGRKKRRQRRRKLSSIESDV [NA-1, reference compound]
[1]
  Neuroprotection in the glutamic acid excitotoxicity model: no to little neuroprotection
[2]
  Outcome of patients who received NA-1 but not alteplase compared with patients who received both NA-1 and alteplase: significantly better functional outcomes, reduced mortality and reduced infarct volume
tPA or TNK [3]
  Interference with the thrombolytic activity of tPA or TNK: does not interfere
tPA or TNK [4]; range over peptide concentrations 0.25-16 µM and both thrombolytics, 1-h assay
  Increase in lag time (time to the commencement of thrombolysis): 0 to 7.16 min
tPA or TNK [4]; summary in abstract
  Effect on maximal activity of the thrombolysis reaction: appeared to increase the maximal activity
TNK
  Effect on TNK lag time vs TNK control: did not significantly increase TNK lag time
  Effect on TNK thrombolysis maximal activity vs TNK control: did not significantly impact TNK thrombolysis maximal activity
TNK; 37 °C, 1 h
  Effect on percentage TNK thrombolysis at 1 h vs TNK control: did not significantly inhibit TNK thrombolysis
tPA; peptide 1 µM
  Increase in tPA lag time: 5.4 min
tPA; peptide 2 µM
  Increase in tPA lag time: 7.16 min
  Increase in tPA thrombolysis maximal activity: 40.68%
tPA; peptide 4 µM
  Increase in tPA thrombolysis maximal activity: 45.1%
tPA; peptide 8 µM
  Increase in tPA thrombolysis maximal activity: 58.65%
tPA; peptide 16 µM
  Increase in tPA thrombolysis maximal activity: 45.65%
tPA; three peptides concurrently on the same plate, 0.5-16 µM peptide, Tris pH 7.4, 37 °C, 1 h, absorbance 510 nm, three independent assays pooled, n = 4, Dunnett's test
  Effect on percentage tPA thrombolysis at 1 h vs tPA control: did not significantly inhibit thrombolysis
